Measurements taken from publication PMC11595719, “Design of Ctenophore Ca^2+-Regulated Photoprotein Berovin Capable of Being Converted into Active Protein Under Physiological Conditions: Computational and Experimental Approaches” (Life, 2024).

Columns and labels:
Assay in all cases: Trp fluorescence quenching at […] nm
Type in all cases: binding
[1] = target: T1, berovin (apo-berovin, BAwt) (Beroe abyssicola, UniProt H8ZZK1)
T1 construct: gene BA2; monomeric
T1 sequence (H8ZZK1 1-208): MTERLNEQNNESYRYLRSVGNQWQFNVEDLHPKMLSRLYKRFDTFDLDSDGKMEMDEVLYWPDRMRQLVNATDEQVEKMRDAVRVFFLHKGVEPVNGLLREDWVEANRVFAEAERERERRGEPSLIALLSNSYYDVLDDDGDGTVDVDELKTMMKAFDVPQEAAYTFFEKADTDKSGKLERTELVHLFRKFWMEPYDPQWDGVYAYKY

[2] = target: T2, berovin (apo-berovin, BAwt) (Beroe abyssicola, UniProt H8ZZK1, K90M)
T2 construct: gene BA2; monomeric

[3] = target: T3, berovin (apo-berovin, BAwt) (Beroe abyssicola, UniProt H8ZZK1, K90A/N107S)
T3 construct: gene BA2; monomeric

[4] = target: T4, berovin (apo-berovin) (Beroe abyssicola, UniProt H8ZZK1, K90M/N107S/W103F)
T4 construct: gene BA2; monomeric
T4 sequence (H8ZZK1 entry or part of it K90M/W103F/N107S): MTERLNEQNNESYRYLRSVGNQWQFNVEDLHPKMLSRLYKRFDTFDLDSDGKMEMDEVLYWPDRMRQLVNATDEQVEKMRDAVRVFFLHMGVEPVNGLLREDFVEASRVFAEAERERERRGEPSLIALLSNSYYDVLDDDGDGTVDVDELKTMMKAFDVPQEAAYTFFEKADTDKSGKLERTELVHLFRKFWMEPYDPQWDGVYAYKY

T2 sequence (H8ZZK1 entry or part of it K90M): as the sequence (H8ZZK1 entry or part of it K90M/W103F/N107S) above, with F103W, S107N counted along it
T3 sequence (H8ZZK1 entry or part of it K90A/N107S): as the sequence (H8ZZK1 entry or part of it K90M/W103F/N107S) above, with M90A, F103W counted along it

SMILES: Oc1ccc(Cc2nc3c(Cc4ccccc4)nc(-c4ccc(O)cc4)cn3c2O)cc1 [coelenterazine]
- Kd [1]: 4.72 ± 0.36 µM
- Kd [2]: 2.61 ± 0.28 µM
- Kd [3]: 1.3 ± 0.15 µM
- Kd [4]: 6.62 ± 0.54 µM
